Laboratory results: paper PMC9706563, “Development of Macrocyclic PRMT5–Adaptor Protein Interaction Inhibitors” (Journal of Medicinal Chemistry, 2022)

Key:
Format in all cases: binding
TIM-MEP50 complex = biological target: T1, TIM-MEP50 complex (Homo sapiens, UniProt O14744); experiment: Thermal shift assay (TSA)
T1 construct: made in house
Procedure: Thermal Shift Assays of peptides on the TIM-MEP50 complex were carried out in a 96-well PCR plate (LightCycler 480 Multiwell Plates 96, white, 04729692001). The purified protein complex was appropriately diluted in a buffer containing 50 mM HEPES (pH = 8.0), 250 mM NaCl, and 1 mM TCEP. All assay experiments used 5.36 μg of protein per well and […] 5000X Sypro Orange (Invitrogen) up to a total volume of 25 μL, with a resultant protein concentration of 3 μM and 5X SYPRO. Peptides were supplied at 10 mM concentration in DMSO. The PCR plates were sealed with an optical seal (LightCycler 480 Sealing Foil, 04729757001), shaken, and centrifuged after protein and compounds were added. Thermal scanning (25–95 °C at 1 °C/min) was performed using a real-time PCR setup (LightCycler 480 – Roche), and fluorescence intensity was measured after every temperature increment step. Analysis of the raw data was performed using internally developed software. Statistical validation of Tm shift relevance was performed using the Student’s t test (n = 6).

PRMT5-MEP50 complex = biological target: T2, PRMT5-MEP50 complex (Homo sapiens, UniProt O14744); experiment: Pull-down with peptides immobilized on DBCO beads, MCF7 cell lysate; conditions: 100 μM nonimmobilized peptide in MCF7 lysate
T2 construct: endogenous in cells; host or cells: MCF7
T2 sequence (O14744 whole entry): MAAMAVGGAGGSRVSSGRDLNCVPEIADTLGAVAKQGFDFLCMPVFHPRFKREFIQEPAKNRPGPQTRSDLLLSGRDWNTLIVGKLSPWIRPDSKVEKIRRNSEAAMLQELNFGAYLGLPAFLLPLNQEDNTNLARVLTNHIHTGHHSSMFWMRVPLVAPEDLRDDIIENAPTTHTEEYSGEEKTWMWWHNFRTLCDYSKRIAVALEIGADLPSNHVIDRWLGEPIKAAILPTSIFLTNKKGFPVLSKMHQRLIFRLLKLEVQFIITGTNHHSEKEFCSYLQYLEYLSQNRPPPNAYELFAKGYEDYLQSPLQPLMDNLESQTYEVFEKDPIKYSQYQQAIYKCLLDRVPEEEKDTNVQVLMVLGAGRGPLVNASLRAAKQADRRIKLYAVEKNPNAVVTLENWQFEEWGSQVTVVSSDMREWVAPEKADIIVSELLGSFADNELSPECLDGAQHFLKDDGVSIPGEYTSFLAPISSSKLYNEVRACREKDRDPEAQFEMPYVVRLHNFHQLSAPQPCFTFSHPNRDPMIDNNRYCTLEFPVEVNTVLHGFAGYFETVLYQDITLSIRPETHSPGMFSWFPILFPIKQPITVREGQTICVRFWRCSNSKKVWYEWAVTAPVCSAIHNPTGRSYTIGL
T2 sequence (Q9BQA1 whole entry partner): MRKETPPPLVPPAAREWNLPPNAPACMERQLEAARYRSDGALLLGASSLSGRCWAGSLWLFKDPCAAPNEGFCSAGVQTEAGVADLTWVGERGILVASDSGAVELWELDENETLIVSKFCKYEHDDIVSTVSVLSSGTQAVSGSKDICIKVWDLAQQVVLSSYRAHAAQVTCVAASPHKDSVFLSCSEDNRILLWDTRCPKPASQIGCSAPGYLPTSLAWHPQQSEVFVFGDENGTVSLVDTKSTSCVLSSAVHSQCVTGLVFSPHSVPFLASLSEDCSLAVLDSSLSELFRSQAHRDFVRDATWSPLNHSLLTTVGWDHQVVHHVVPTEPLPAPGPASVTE
Procedure: DBCO agarose beads (300 μL; Jena Bioscience, Germany) were washed three times with PBS (600 μL, pH 7.4). To the beads suspended in PBS (600 μL) was added a 10 mM solution of azide-labeled peptide in DMSO or pure DMSO. The obtained suspensions were incubated overnight at 4 °C. The beads were washed with PBS three times for 10 min. MCF7 cells were harvested and lysed using Triton X100 lysis buffer (NaCl 150 mM, HEPES 25 mM, TCEP 1 mM, 1% Triton x100, 1% NP40 alternative, protease, and phosphatase inhibitor, pH 7.4). Empty beads, beads bound to an active peptide (55), or beads bound to a scrambled peptide (56) were added to the lysate (6 mg/mL) and rotated at 4 °C overnight. Beads attached to the active peptides were also incubated in the lysate containing a nonimmobilized/free active macrocycle (53 at 100 μM). Beads were collected by centrifugation (800g for 1 min) and washed three times for 10 min with PBS (500 μL). The beads were suspended in SDS-PAGE protein loading buffer (20 uL; […], 8% v/v glycerol, 2% SDS, […] (DTE), 0.02% bromophenol blue, pH 6.8), heated with shaking for 10 min at 95 °C, and centrifuged at 350 rpm. The obtained solutions were analyzed by western blotting using 10% acrylamide gels, and PVDF membranes and the relevant proteins were fluorescently detected using antibodies against PRMT5 and MEP50 and the corresponding secondary IRDye antibodies.

[1] = biological target: T3, PRMT5-MEP50 / RioK1 interaction (Homo sapiens, UniProt O14744); experiment: GFP immunopurification from Flp-In T-REx 293 S100 extracts, RioK1 readout; conditions: 50 μM
T3 construct: expressed in transfected cells; host or cells: Flp-In T-REx 293
T3 sequence (O14744 whole entry): as the sequence (O14744 whole entry) above
T3 sequence (Q9BQA1 whole entry partner): as the sequence (Q9BQA1 whole entry partner) above
Procedure: (§1) Harvested Flp-In T-Rex 293 cells were incubated with Roeder A buffer[32] in three times sample weight for 10 min at room temperature, dounced 10 times, and adjusted to 150 mM NaCl. After centrifugation at 17,000 g for 30 min, the supernatants (S100 extracts) were used for immunopurification and treatment with inhibitors.
(§2) For the treatment, the S100 extracts of GFP, GFP-PRMT5, GFP-RioK1, and GFP-pICln were incubated with DMSO, active 53, and scrambled 54, used at a concentration of 50 μM. The incubation with the S100 extract was carried out for 1 h at room temperature. For GFP immunopurification, S100 extracts were incubated with GFP-Trap_A beads (ChromoTek) at 4 °C for 2 h with rotation. Purified proteins were washed 3 times with washing buffer (150 mM NaCl, 50 mM Tris/HCl pH 7.5, 1 mM EDTA, 1 mM EGTA, and 0.01% Igepal with protease inhibitors), eluted in sample buffer [375 mM Tris pH 7.5; 25.8% (w/v) glycerol; 12.3% (w/v) SDS; 0.06% (w/v) bromophenol blue; and 6% (v/v) β-mercaptoethanol; pH 6.8], and analyzed by immunoblotting.
(§3) Immunopurification samples were separated by Tris/Tricine or Tris/Glycine SDS gel electrophoresis[33] and transferred to PVDF membranes (Immobilon-FL, Merck Millipore). The immunoblot analysis was performed using the indicated antibodies against RioK1, PRMT5, MEP50, pICln, and GFP, and the signals were detected with an Odyssey LI-COR Imaging System.

[2] = biological target: T4, PRMT5-MEP50 / pICln interaction (Homo sapiens, UniProt O14744); experiment: GFP immunopurification from Flp-In T-REx 293 S100 extracts, pICln readout; conditions: 50 μM
T4 construct: expressed in transfected cells; host or cells: Flp-In T-REx 293
T4 sequence (O14744 whole entry): as the sequence (O14744 whole entry) above
T4 sequence (Q9BQA1 whole entry partner): as the sequence (Q9BQA1 whole entry partner) above
Procedure: as §1, §2, §3

T1 sequence (O14744 13-292 limits assumed): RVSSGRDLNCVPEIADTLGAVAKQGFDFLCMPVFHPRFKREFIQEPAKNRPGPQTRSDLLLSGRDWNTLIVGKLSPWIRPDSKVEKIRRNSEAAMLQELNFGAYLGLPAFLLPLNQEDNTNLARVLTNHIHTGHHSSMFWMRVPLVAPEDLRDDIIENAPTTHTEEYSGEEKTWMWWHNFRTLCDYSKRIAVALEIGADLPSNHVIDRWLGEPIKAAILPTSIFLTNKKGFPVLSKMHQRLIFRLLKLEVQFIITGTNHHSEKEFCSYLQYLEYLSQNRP
T1 sequence (Q9BQA1 whole entry partner): as the sequence (Q9BQA1 whole entry partner) above

increase of the average melting temperature (TIM-MEP50 complex; TSA, PRMT5 TIM barrel-MEP50 complex, n = 6): 2.27 °C | TSA Average Tm (°C) (TIM-MEP50 complex; supplementary CSV): 51.75 ± 0.42 °C | enrichment of RioK1 with GFP-PRMT5 ([1]; GFP-PRMT5 IP): enrichment of RioK1 was blocked | interaction of pICln with PRMT5-MEP50 ([2]; GFP-pICln IP): pICln still engaged with it
Compound: CC(=O)N[C@H](C(=O)N1CCC[C@H]1C(=O)NC1CCCCC[C@@H](C(=O)N[C@@H](CC(=O)O)C(=O)N[C@@H](C)C(=O)N[C@@H](CC(C(=O)O)C(=O)O)C(N)=O)NC(=O)[C@H](Cc2ccc([N+](=O)[O-])cc2)NC(=O)[C@H](CCC(N)=O)NC1=O)C(C)C (stereo in doubt) [Compound 53]
competition of free peptide with immobilized 55 (PRMT5-MEP50 complex): demonstrated competition between the immobilized and free peptide | interaction of RioK1 with PRMT5-MEP50 ([1]; GFP-RioK1 IP): fully inhibited RioK1 from interacting with the PRMT5-MEP50 complex | binding of pICln to the complex with GFP-PRMT5 ([2]; GFP-PRMT5 IP): binding of pICln to the complex was not inhibited
